Like-named read-outs stand apart in the source and are kept apart here.
Experiments:
Assay type in all cases: binding
[1] = biological target: CDK16/Cyclin Y (Homo sapiens, UniProt Q00536); test: NanoBRET live-cell target engagement, CDK16-NanoLuc/Cyclin Y in HEK-293; conditions: for IC50: read-out: CDK16/Y IC50; for inhibition at 10 µM: read-out: CDK16/Y Inhibition at 10µM (%), 10µM
[2] = biological target: CDK1/Cyclin E1 (Homo sapiens, UniProt P06493); test: NanoBRET live-cell target engagement, CDK1-NanoLuc/Cyclin E1 in HEK-293; conditions: for inhibition at 10 µM: read-out: CDK1/E1 Inhibition at 10µM (%); for IC50: read-out: CDK1/E1 IC50
[3] = biological target: CDK20/Cyclin H (Homo sapiens, UniProt Q8IZL9); test: NanoBRET live-cell target engagement, NanoLuc-CDK20/Cyclin H in HEK-293; conditions: read-out: CDK20/H Inhibition at 10µM (%), 10µM
[4] = biological target: CDK9/Cyclin K (Homo sapiens, UniProt P50750); test: NanoBRET live-cell target engagement, NanoLuc-CDK9/Cyclin K in HEK-293; conditions: 10µM, read-out: CDK9/K Inhibition at 10µM (%)
[5] = biological target: CDK12/Cyclin K (Homo sapiens, UniProt Q9NYV4); test: NanoBRET live-cell target engagement, CDK12-NanoLuc/Cyclin K in HEK-293; conditions: read-out: CDK12/K Inhibition at 10µM (%), 10µM
[6] = biological target: CDK8/Cyclin C (Homo sapiens, UniProt P49336); test: NanoBRET live-cell target engagement, NanoLuc-CDK8/Cyclin C in HEK-293; conditions: 10µM, read-out: CDK8/C Inhibition at 10µM (%)
[7] = biological target: CDK15/Cyclin Y (Homo sapiens, UniProt Q96Q40); test: NanoBRET live-cell target engagement, NanoLuc-CDK15/Cyclin Y in HEK-293; conditions: for inhibition at 10 µM: read-out: CDK15/Y Inhibition at 10µM (%), 10µM
[8] = biological target: CDK11B/Cyclin L2 (Homo sapiens, UniProt P21127); test: NanoBRET live-cell target engagement, CDK11B-NanoLuc/Cyclin L2 in HEK-293; conditions: read-out: CDK11b/L2 Inhibition at 10µM (%), 10µM
[9] = biological target: CDK17/Cyclin Y (Homo sapiens, UniProt Q00537); test: NanoBRET live-cell target engagement, CDK17-NanoLuc/Cyclin Y in HEK-293; conditions: for IC50: read-out: CDK17/Y IC50; for inhibition at 10 µM: read-out: CDK17/Y Inhibition at 10µM (%), 10µM
[10] = biological target: CDK6/Cyclin D1 (Homo sapiens, UniProt Q00534); test: NanoBRET live-cell target engagement, NanoLuc-CDK6/Cyclin D1 in HEK-293; conditions: for inhibition at 10 µM: read-out: CDK6/D1 Inhibition at 10µM (%); for CDK6 Occupancy (%): Panel A
[11] = biological target: CDK4/Cyclin D1 (Homo sapiens, UniProt P11802); test: NanoBRET live-cell target engagement, NanoLuc-CDK4/Cyclin D1 in HEK-293; conditions: 10µM; average of experiments; read-out: CDK4/D1 Inhibition at 10µM (%)

Sequence of CDK6/Cyclin D1 (Q00534 whole entry): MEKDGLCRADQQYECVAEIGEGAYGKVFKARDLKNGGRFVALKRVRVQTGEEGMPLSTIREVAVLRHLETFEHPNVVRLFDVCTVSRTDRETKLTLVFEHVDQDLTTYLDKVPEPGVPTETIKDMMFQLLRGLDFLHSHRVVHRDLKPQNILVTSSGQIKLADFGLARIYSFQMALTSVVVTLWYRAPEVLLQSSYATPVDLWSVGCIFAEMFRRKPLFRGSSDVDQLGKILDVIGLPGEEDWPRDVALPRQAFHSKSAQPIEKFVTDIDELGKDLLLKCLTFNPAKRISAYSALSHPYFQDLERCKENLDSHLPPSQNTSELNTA
Sequence of CDK6/Cyclin D1 (P24385 whole entry partner): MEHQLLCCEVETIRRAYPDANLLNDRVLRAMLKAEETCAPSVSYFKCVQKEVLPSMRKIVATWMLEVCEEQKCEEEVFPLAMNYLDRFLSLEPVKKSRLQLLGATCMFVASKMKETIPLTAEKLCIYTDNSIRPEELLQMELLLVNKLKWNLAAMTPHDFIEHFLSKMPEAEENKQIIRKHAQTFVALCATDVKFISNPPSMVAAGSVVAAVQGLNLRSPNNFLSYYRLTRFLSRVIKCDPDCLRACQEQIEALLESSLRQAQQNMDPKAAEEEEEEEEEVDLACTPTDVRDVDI
Sequence of CDK16/Cyclin Y (Q00536 whole entry): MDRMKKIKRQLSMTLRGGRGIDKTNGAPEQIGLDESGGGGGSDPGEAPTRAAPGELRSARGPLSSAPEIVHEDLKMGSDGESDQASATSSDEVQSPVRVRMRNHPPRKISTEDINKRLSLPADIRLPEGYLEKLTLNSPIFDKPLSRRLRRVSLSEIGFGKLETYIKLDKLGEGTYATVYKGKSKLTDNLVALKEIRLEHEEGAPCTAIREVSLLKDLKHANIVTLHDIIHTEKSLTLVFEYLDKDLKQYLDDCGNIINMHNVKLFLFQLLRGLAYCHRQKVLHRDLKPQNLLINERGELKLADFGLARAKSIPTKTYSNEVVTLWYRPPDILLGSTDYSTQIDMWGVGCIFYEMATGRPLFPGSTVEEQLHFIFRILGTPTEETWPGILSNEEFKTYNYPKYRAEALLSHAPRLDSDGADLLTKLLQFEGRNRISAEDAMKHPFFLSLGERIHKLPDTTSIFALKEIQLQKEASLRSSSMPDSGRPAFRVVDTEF
Sequence of CDK16/Cyclin Y (Q8ND76 whole entry partner): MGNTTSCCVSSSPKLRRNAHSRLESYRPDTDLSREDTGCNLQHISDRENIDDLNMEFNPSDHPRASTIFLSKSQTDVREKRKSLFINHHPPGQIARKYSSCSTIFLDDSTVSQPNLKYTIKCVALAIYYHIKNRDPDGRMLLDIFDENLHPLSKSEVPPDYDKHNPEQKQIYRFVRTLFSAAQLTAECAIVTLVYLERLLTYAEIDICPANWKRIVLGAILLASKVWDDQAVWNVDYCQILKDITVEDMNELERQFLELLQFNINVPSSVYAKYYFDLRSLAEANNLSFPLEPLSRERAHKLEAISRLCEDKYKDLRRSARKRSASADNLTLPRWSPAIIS
Sequence of CDK11B/Cyclin L2 (P21127 1-782 isoform P21127-2): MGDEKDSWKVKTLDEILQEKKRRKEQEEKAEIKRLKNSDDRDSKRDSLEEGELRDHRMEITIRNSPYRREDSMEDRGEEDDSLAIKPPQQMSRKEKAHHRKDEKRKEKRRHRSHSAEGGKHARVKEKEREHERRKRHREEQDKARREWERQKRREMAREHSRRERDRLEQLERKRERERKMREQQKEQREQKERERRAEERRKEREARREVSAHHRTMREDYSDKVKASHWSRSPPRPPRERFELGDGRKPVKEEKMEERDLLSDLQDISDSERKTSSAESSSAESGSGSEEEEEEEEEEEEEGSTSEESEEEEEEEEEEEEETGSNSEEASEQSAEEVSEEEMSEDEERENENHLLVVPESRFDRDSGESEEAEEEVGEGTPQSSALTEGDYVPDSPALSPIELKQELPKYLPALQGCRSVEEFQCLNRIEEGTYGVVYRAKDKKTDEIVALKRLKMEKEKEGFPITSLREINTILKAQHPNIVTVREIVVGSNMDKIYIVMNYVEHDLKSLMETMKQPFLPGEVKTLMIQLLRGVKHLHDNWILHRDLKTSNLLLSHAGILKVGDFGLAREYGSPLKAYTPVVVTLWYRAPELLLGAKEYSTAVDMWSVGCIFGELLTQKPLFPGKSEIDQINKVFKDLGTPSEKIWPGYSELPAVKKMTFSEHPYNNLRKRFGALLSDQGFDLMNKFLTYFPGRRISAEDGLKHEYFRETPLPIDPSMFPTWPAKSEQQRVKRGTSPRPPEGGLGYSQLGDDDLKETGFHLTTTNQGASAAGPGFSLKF
Sequence of CDK9/Cyclin K (P50750 whole entry): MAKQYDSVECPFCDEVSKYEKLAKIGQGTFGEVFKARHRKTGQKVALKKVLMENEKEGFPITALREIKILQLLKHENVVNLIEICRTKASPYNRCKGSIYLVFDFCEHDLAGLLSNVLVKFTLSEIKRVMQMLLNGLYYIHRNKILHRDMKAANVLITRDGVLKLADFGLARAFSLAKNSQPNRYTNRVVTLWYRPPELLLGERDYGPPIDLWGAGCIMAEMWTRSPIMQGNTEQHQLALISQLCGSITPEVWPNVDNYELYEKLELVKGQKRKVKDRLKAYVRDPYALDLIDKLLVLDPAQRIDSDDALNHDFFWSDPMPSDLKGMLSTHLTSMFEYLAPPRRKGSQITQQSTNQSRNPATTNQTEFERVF
Sequence of CDK9/Cyclin K (O75909 whole entry partner): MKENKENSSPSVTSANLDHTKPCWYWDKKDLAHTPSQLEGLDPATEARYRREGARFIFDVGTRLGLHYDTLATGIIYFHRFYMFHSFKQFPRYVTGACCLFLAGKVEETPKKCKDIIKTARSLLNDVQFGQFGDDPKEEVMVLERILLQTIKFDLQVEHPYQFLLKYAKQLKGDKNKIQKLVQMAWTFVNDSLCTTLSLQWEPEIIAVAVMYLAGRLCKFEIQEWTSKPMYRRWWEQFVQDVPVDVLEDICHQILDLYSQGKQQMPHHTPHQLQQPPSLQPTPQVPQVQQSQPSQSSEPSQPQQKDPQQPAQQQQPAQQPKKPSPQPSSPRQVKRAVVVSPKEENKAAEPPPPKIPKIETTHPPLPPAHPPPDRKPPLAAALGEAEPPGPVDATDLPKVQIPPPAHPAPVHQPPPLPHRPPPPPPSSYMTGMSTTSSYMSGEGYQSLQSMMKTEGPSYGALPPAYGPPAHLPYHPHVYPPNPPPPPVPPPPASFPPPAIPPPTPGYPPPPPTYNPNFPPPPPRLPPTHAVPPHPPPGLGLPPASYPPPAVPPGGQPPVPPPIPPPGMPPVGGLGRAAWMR
Sequence of CDK15/Cyclin Y (Q96Q40 whole entry): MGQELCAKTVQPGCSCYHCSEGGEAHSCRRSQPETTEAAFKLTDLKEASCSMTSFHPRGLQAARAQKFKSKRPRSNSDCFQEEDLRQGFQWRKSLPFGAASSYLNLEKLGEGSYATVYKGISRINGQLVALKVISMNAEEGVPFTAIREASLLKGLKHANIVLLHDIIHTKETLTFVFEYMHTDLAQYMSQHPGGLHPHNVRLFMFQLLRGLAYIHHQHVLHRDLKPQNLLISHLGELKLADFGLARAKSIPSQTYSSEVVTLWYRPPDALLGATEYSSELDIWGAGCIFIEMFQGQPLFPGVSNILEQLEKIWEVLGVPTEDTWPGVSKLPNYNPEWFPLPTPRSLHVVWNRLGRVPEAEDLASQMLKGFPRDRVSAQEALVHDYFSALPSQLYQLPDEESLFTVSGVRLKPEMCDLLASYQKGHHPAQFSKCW
Sequence of CDK15/Cyclin Y (Q8ND76 whole entry partner): as the sequence (Q8ND76 whole entry partner) above
Sequence of CDK1/Cyclin E1 (P06493 whole entry): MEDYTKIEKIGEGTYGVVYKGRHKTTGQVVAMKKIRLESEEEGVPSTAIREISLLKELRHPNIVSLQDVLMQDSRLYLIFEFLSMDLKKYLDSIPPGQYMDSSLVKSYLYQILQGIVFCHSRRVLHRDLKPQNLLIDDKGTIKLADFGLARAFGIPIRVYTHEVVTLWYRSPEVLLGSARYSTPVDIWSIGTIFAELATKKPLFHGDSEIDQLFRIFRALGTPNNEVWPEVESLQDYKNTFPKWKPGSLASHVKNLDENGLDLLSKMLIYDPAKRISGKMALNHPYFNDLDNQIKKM
Sequence of CDK1/Cyclin E1 (P24864 whole entry partner): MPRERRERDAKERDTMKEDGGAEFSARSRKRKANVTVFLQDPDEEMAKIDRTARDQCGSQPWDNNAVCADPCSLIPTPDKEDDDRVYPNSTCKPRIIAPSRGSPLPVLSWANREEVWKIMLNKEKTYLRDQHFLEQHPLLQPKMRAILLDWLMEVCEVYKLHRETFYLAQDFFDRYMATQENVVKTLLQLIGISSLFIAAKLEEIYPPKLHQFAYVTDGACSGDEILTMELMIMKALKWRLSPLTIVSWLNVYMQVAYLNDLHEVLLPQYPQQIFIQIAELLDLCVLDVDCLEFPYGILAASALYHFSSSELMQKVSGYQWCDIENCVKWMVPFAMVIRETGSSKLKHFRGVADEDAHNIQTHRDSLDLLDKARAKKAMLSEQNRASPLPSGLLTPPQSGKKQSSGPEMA
Sequence of CDK17/Cyclin Y (Q00537 whole entry): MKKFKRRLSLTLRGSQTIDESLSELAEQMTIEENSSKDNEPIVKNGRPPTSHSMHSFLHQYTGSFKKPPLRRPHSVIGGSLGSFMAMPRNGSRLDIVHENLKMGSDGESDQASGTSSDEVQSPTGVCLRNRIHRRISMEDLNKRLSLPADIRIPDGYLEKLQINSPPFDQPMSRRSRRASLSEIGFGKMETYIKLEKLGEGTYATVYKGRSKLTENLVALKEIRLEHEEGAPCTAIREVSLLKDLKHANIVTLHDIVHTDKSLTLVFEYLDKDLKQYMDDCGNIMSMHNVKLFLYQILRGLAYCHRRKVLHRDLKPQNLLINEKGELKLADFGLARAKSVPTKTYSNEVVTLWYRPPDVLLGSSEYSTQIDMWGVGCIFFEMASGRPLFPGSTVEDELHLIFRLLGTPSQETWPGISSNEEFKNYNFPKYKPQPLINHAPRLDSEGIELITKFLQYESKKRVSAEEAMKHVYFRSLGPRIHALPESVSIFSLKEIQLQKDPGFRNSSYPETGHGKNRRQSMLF
Sequence of CDK17/Cyclin Y (Q8ND76 whole entry partner): as the sequence (Q8ND76 whole entry partner) above

COCCN1CCN(Cc2ccc(-c3n[nH]c4c3C(=O)c3c(NC(=O)NN5CCOCC5)cccc3-4)cc2)CC1 [RGB286638]
IC50 ([1]; average (± SEM where n=3)): 5.2 nM
IC50 ([1]; independent experiment 1): 5.4 nM
IC50 ([1]; independent experiment 2): 5 nM
inhibition at 10 µM ([1]; independent experiment 1): 95.2%
inhibition at 10 µM ([1]; independent experiment 2): 92.3%
inhibition at 10 µM ([2]; average of experiments): 87.9%
inhibition at 10 µM ([2]; independent experiment 1): 79.8%
inhibition at 10 µM ([2]; independent experiment 2): 96%
IC50 ([2]; average (± SEM where n=3)): 39 nM
IC50 ([2]; independent experiment 1): 37 nM
IC50 ([2]; independent experiment 2): 41 nM
inhibition at 10 µM ([3]; independent experiment 1): 46%
inhibition at 10 µM ([3]; independent experiment 2): 84.3%
inhibition at 10 µM ([4]; average of experiments): 94.7%
inhibition at 10 µM ([4]; independent experiment 1): 90.7%
inhibition at 10 µM ([4]; independent experiment 2): 98.8%
inhibition at 10 µM ([5]; average of experiments): 47.5%
inhibition at 10 µM ([5]; independent experiment 1): 30.7%
inhibition at 10 µM ([5]; independent experiment 2): 64.4%
inhibition at 10 µM ([6]; average of experiments): 55.6%
inhibition at 10 µM ([6]; independent experiment 1): 21.9%
inhibition at 10 µM ([6]; independent experiment 2): 89.3%
IC50 ([7]; average (± SEM where n=3), read-out: CDK15/Y IC50): 14 nM
IC50 ([7]; independent experiment 1, read-out: CDK15/Y IC50): 14 nM
IC50 ([7]; independent experiment 2, read-out: CDK15/Y IC50): 13 nM
IC50 ([7]; live HEK-293, 2 h, mean ± S.E.M. (n=3) or mean (n=2), read-out: IC50 for CDK/cyclin complexes, CDK15/Y): 14 nM
inhibition at 10 µM ([7]; average of experiments): 97.4%
inhibition at 10 µM ([7]; independent experiment 1): 96.5%
inhibition at 10 µM ([7]; independent experiment 2): 98.2%
inhibition at 10 µM ([8]; average of experiments): 32.6%
inhibition at 10 µM ([8]; independent experiment 1): 19.9%
inhibition at 10 µM ([8]; independent experiment 2): 45.2%
IC50 ([9]; average (± SEM where n=3)): 6.6 nM
IC50 ([9]; independent experiment 1): 7.9 nM
IC50 ([9]; independent experiment 2): 5.3 nM
inhibition at 10 µM ([9]; average of experiments): 93.9%
inhibition at 10 µM ([9]; independent experiment 1): 95.7%
inhibition at 10 µM ([9]; independent experiment 2): 92.1%
inhibition at 10 µM ([10]; average of experiments): 99.1%
inhibition at 10 µM ([10]; independent experiment 1): 98.9%
inhibition at 10 µM ([10]; independent experiment 2): 99.4%
CDK6 Occupancy (%) ([10]; LOG10([RGB-286638]) 0.045757 LOG10(µM)): 96.3121%
CDK6 Occupancy (%) ([10]; LOG10([RGB-286638]) 0.522879 LOG10(µM)): 95.6738%
CDK6 Occupancy (%) ([10]; LOG10([RGB-286638]) 1 LOG10(µM)): 95.6028%
CDK6 Occupancy (%) ([10]; LOG10([RGB-286638]) -0.43136 LOG10(µM)): 95.1064%
CDK6 Occupancy (%) ([10]; LOG10([RGB-286638]) -0.90849 LOG10(µM)): 90.4255%
CDK6 Occupancy (%) ([10]; LOG10([RGB-286638]) -1.38561 LOG10(µM)): 76.8794%
CDK6 Occupancy (%) ([10]; LOG10([RGB-286638]) -1.86273 LOG10(µM)): 49.6454%
CDK6 Occupancy (%) ([10]; LOG10([RGB-286638]) -2.33985 LOG10(µM)): 19.8582%
CDK6 Occupancy (%) ([10]; LOG10([RGB-286638]) -2.81697 LOG10(µM)): 7.0922%
CDK6 Occupancy (%) ([10]; LOG10([RGB-286638]) -3.29409 LOG10(µM)): 2.128%
CDK6 Occupancy (%) ([10]; LOG10([RGB-286638]) -3.77121 LOG10(µM)): 0%
IC50 ([10]; average (± SEM where n=3), read-out: CDK6/D1 IC50): 12 ± 1 nM
IC50 ([10]; independent experiment 1, read-out: CDK6/D1 IC50): 13 nM
IC50 ([10]; independent experiment 2, read-out: CDK6/D1 IC50): 9.7 nM
IC50 ([10]; independent experiment 3, read-out: CDK6/D1 IC50): 14 nM
IC50 ([10]; live HEK-293, 2 h, mean ± S.E.M. (n=3) or mean (n=2), read-out: IC50 for CDK/cyclin complexes, CDK6/D1): 12 to 16 nM
inhibition at 10 µM [11]: 99.8%

Reference: article PMC7265341, “Quantifying CDK inhibitor selectivity in live cells” (Nature Communications, 2020)
